BindingDB's records for PubMed 39914143 (COMSATS University Islamabad)

Target: T1, Amine oxidase [flavin-containing] B (Homo sapiens, UniProt P27338)
T1 sequence (P27338 whole entry): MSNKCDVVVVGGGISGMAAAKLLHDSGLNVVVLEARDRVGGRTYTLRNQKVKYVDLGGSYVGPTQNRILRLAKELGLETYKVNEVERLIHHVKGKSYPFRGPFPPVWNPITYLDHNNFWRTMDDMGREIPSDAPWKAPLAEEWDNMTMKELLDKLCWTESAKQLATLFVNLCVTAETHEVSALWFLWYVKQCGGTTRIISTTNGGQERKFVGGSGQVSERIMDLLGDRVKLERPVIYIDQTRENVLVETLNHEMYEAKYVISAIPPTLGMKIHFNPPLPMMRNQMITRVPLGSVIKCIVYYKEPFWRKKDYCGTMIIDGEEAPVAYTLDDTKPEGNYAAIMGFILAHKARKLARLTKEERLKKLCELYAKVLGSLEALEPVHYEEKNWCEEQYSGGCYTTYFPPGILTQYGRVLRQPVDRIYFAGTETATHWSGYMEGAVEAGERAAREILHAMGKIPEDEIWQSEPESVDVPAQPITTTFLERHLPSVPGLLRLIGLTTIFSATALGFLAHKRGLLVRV
Assay: Inhibition of MAO-B (unknown origin)

Question: With CN(C)CCN1CCN(Cc2ccc(C(=O)Nc3nc4ccccc4s3)cc2)CC1 as the compound, how does the IC50 read?
Answer: Its IC50 is 40 nM.
